These results are taken from patent USRE44768E1, “Rapamycin hydroxyesters” (Wyeth LLC, priority 1994, dated 2014).

One may read the IC50 as the concentration that gives 50% inhibition.

Where “and” joins values, the source holds several entries; their conditions need not be identical. Identical values can stand only once. Like-named read-outs stand apart in the source and are kept apart here.

The subject of test [1] is cells from the thymus of normal BALB/c mice. In words: comitogen-induced thymocyte proliferation procedure (LAF). As to conditions: for LAF ratio: ratio compared with rapamycin, greater than 1 = inhibited thymocyte proliferation to a greater extent than rapamycin; for IC50: read-out: LAF IC50.
Description: Cells are cultured with and without various concentrations of rapamycin, cyclosporin A, or test compound. Cells are harvested and incorporated radio-activity is determined. Inhibition of lymphoproliferation is assessed as percent change in counts per minute from nondrug treated controls. For each compound evaluated, rapamycin was also evaluated for the purpose of comparison. An IC50 was obtained for each test compound as well as for rapamycin. […] The results obtained are provided as an IC50 and as the percent inhibition of T-cell proliferation at 0.1 μM. […] A positive ratio indicates immunosuppressive activity.
Test [2] concerns pinch skin graft from male BALB/c donors transplanted to male C3H(H-2K) recipients. In words: pinch skin graft survival test procedure. In kind it is in vivo. As to conditions: mean graft survival time ± S.D., dose of 4 mg/kg. How it is done:
Representative compounds of this invention were also evaluated in an in vivo test procedure designed to determine the survival time of pinch skin graft from male BALB/c donors transplanted to male C3H(H-2K) recipients. The method is adapted from Billingham R. E. and Medawar P. B., J. Exp. Biol. 28:385-402, (1951). Briefly, as pinch skin graft from the donor was grafted on the dorsum of the recipient as a allograft, and an isograft was used as control in the same region. The recipients were treated with either varying concentrations of test compounds intraperitoneally or orally. Rapamycin was used as a test control. Untreated recipients serve as rejection control. The graft was monitored daily and observations were recorded until the graft became dry and formed a blackened scab. This was considered as the rejection day. The mean graft survival time (number of days±S.D.) of the drug treatment group was compared with the control group. […] Results are expressed as the mean survival time in days. Untreated (control) pinch skin grafts are usually rejected within 6-7 days. Compounds were tested using a dose of 4 mg/kg.

Test [3] relates to adjuvant arthritis (uninjected hind paw, T-cell mediated inflammation). In words: adjuvant arthritis standard pharmacological test procedure. In kind it is in vivo, male inbread Wistar Lewis rats. The settings on record: uninjected paw at day 16 versus control; oral dose of 5 mg/kg. How it is done: The adjuvant arthritis standard pharmacological test procedure measures the ability of test compounds to prevent immune mediated inflammation and inhibit or treat rheumatoid arthritis. The following briefly describes the test procedure used. A group of rats (male inbread Wistar Lewis rats) are pre-treated with the compound to be tested (1 h prior to antigen) and then injected with Freud's Complete Adjuvant (FCA) in the right hind paw to induce arthritis. The rats are then orally dosed on a Monday, Wednesday, Friday schedule from day 0-14 for […]. Both hind paws are measured on days 16, 23, and 30. The difference in paw volume (mL) from day 16 to day 0 is determined and a percent change from control is obtained. […] The right hind paw inflammation, on the other hand, is caused by non-specific inflammation. Compounds were tested at a dose of 5 mg/kg.

Where [4] appears, read: thymocytes cultured 72 hours with PHA and IL-1, tritiated thymidine incorporation.

On to `COC1CC2CCC(C)C(O)(O2)C(=O)C(=O)N2CCCCC2C(=O)OC(C(C)CC2CCC(OC(=O)C(C)(C)COC3CCCCO3)C(OC)C2)CC(=O)C(C)C=C(C)C(O)C(OC)C(=O)C(C)CC(C)C=CC=CC=C1C` (centres unmarked) [Example 3, Rapamycin 42-ester with 2,2-dimethyl-3-(tetrahydropyran-2-yloxy)propionic acid], for which, in test [1], the LAF ratio came to 0.34. Moreover, the IC50 in test [1] (setting [4]) turned out to be 7.1 nM.

`CO[C@H]1CC2CC[C@@H](C)[C@@](O)(O2)C(=O)C(=O)N2CCCC[C@H]2C(=O)O[C@H]([C@H](C)C[C@@H]2CC[C@@H](OC(=O)C(C)(CO)CO)[C@H](OC)C2)CC(=O)[C@H](C)/C=C(\C)[C@@H](O)[C@@H](OC)C(=O)[C@H](C)C[C@H](C)/C=C/C=C/C=C/1C` [Example 11, Rapamycin 42-ester with 2,2-bis-(hydroxymethyl)propionic acid]: the “Skin graft survival time” value in test [2] (4 mg/kg) was 11.4 ± 1.5 days and 12.0 ± 1.1 days. Besides, the “Percent change in adjuvant arthritis versus control” value in test [3] is reported as less than 88%.

As to `CO[C@H]1C[C@@H]2CC[C@@H](C)[C@@](O)(O2)C(=O)C(=O)N2CCCC[C@H]2C(=O)O[C@H]([C@H](C)C[C@@H]2CC[C@@H](O)[C@H](OC)C2)CC(=O)[C@H](C)/C=C(\C)[C@@H](O)[C@@H](OC)C(=O)[C@H](C)C[C@H](C)/C=C/C=C/C=C/1C` [rapamycin, Rapamycin], in test [1] (Mus musculus, Thymocyte, 72 h), the concentration for half-maximal inhibition (IC50) lay within 0.6 to 1.5 nM.

With `COC1CC2CCC(C)C(O)(O2)C(=O)C(=O)N2CCCCC2C(=O)OC(C(C)CC2CCC(OC(=O)C3(C)COC4(CCCCC4)OC3)C(OC)C2)CC(=O)C(C)C=C(C)C(O)C(OC)C(=O)C(C)CC(C)C=CC=CC=C1C` (centres unmarked) [Example 13, Rapamycin 42-ester with 3-methyl-1,5-dioxa-spiro[5.5]undecane 3-carboxylic acid], in test [1], the LAF ratio was 2.00. Further, the IC50 in test [1] (setting [4]) was found to be 0.6 nM.

In the case of `COC1CC2CCC(C)C(O)(O2)C(=O)C(=O)N2CCCCC2C(=O)OC(C(C)CC2CCC(OC(=O)C3COC(C)(C)O3)C(OC)C2)CC(=O)C(C)C=C(C)C(OC(=O)C2COC(C)(C)O2)C(OC)C(=O)C(C)CC(C)C=CC=CC=C1C` (centres unmarked) [Example 6, Rapamycin 31,42-diester with 2,2-dimethyl[1,3]dioxalane-4-carboxylic acid], the LAF ratio in test [1] stood at 0.5. For the same molecule, the IC50 in test [1] (setting [4]) was 1.3 nM.

Regarding `COC1CC2CCC(C)C(O)(O2)C(=O)C(=O)N2CCCCC2C(=O)OC(C(C)CC2CCC(OC(=O)C3COC(C)(C)OC3)C(OC)C2)CC(=O)C(C)C=C(C)C(O)C(OC)C(=O)C(C)CC(C)C=CC=CC=C1C` (centres unmarked) [Example 8], in test [1], the LAF ratio came out at 0.45. Further, the IC50 in test [1] (setting [4]) turned out to be 0.76 nM.

`CO[C@H]1C[C@@H]2CC[C@@H](C)[C@@](O)(O2)C(=O)C(=O)N2CCCC[C@H]2C(=O)O[C@H]([C@H](C)C[C@@H]2CC[C@@H](OC(=O)CO)[C@H](OC)C2)CC(=O)[C@H](C)/C=C(\C)[C@@H](O)[C@@H](OC)C(=O)[C@H](C)C[C@H](C)/C=C/C=C/C=C/1C` [Example 2, Rapamycin 42-ester with hydroxyacetic acid]: the “Percent change in adjuvant arthritis versus control” value in test [3] is reported as −88%. Also, the LAF ratio in test [1] came to 0.83. Besides, the IC50 in test [1] (setting [4]) was found to be 1.8 nM.

In the case of `COC1CC2CCC(C)C(O)(O2)C(=O)C(=O)N2CCCCC2C(=O)OC(C(C)CC2CCC(OC(=O)C3COC(C)(C)O3)C(OC)C2)CC(=O)C(C)C=C(C)C(O)C(OC)C(=O)C(C)CC(C)C=CC=CC=C1C` (centres unmarked) [Example 5, Rapamycin 42-ester with 2,2-dimethyl[1,3]dioxalane-4-carboxylic acid], the LAF ratio in test [1] was determined as 0.74. For the same molecule, the IC50 in test [1] (setting [4]) turned out to be 1.2 nM.

Consider `CO[C@H]1C[C@@H]2CC[C@@H](C)[C@@](O)(O2)C(=O)C(=O)N2CCCC[C@H]2C(=O)O[C@H]([C@H](C)C[C@@H]2CC[C@@H](OC(=O)C3(C)COC(C)(C)OC3)[C@H](OC)C2)CC(=O)[C@H](C)/C=C(\C)[C@@H](O)[C@@H](OC)C(=O)[C@H](C)C[C@H](C)/C=C/C=C/C=C/1C` [Example 10], for which, in test [2], the “Skin graft survival time” value amounted to 11.0 ± 1.3 days. In addition, the LAF ratio in test [1] is 0.41. Moreover, the half-inhibitory concentration (IC50) in test [1] (setting [4]) is 4.9 nM.

In the case of `COC1CC2CCC(C)C(O)(O2)C(=O)C(=O)N2CCCCC2C(=O)OC(C(C)CC2CCC(OC(=O)C(CO)CO)C(OC)C2)CC(=O)C(C)C=C(C)C(O)C(OC)C(=O)C(C)CC(C)C=CC=CC=C1C` (centres unmarked) [Example 9, Rapamycin 42-ester with 3-hydroxy-2-hydroxymethylpropionic acid], in test [1], the LAF ratio was 0.57. Moreover, in test [1] (setting [4]), the IC50 worked out at 0.84 nM.

As to `COC1CC2CCC(C)C(O)(O2)C(=O)C(=O)N2CCCCC2C(=O)OC(C(C)CC2CCC(OC(=O)C3(C)COC4(CCCCC4)OC3)C(OC)C2)CC(=O)C(C)C=C(C)C(OC(=O)C2(C)COC3(CCCCC3)OC2)C(OC)C(=O)C(C)CC(C)C=CC=CC=C1C` (centres unmarked) [Example 14, Rapamycin 31.42-diester with 3-methyl-1.5-dioxa-spiro[5.5]undecane 3-carboxylic acid], the “percent inhibition of T-cell proliferation” value in test [1] (at 0.1 μM) is reported as 43%.

In the case of “Rapamycin 42-ester with 2,2-dimethyl-5-(2-trimethylsilanylethoxymethyl)[1,3]dioxane-5-carboxylic acid [Example 12]”, the LAF ratio in test [1] stood at 0.05. Further, the IC50 in test [1] (setting [4]) worked out at 7.2 nM.

Turning to “Rapamycin 42-ester with 2,3-dihydroxypropionic acid [Example 7]”, the LAF ratio in test [1] came to 0.40. Besides, the IC50 in test [1] (setting [4]) is 1.4 nM.

Consider `CO[C@H]1C[C@@H]2CC[C@@H](C)[C@@](O)(O2)C(=O)C(=O)N2CCCC[C@H]2C(=O)O[C@H]([C@H](C)C[C@@H]2CC[C@@H](OC(=O)C(C)(C)CO)[C@H](OC)C2)CC(=O)[C@H](C)/C=C(\C)[C@@H](O)[C@@H](OC)C(=O)[C@H](C)C[C@H](C)/C=C/C=C/C=C/1C` [Example 4, Rapamycin 42-ester with 3-hydroxy-2,2-dimethylpropionic acid], for which the “Skin graft survival time” value in test [2] came out at 10.7 ± 0.5 days. Also, the LAF ratio in test [1] is listed as 1.25. Further, in test [1] (setting [4]), the half-inhibitory concentration (IC50) was 0.8 nM.
